Columns and labels:
Papain = biological target: T1, Papain (Carica papaya, UniProt P00784); test: Inhibitory activity against papain
T1 sequence (P00784 whole entry): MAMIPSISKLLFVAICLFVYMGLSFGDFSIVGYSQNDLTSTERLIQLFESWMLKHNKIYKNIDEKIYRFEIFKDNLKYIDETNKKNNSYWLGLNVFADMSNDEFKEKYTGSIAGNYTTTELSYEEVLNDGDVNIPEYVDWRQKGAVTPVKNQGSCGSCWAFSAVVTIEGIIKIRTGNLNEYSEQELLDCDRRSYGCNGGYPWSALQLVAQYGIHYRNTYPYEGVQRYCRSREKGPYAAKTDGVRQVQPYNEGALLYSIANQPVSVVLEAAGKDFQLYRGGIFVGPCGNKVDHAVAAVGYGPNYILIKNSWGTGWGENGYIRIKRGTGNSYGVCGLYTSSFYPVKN

Plasminogen = Plasminogen (Homo sapiens, UniProt P00747); test: Inhibitory activity against plasmin
Cathepsin B = Cathepsin B (Homo sapiens, UniProt P07858); test: Inhibitory activity against Cathepsin B

Sequence of Plasminogen (P00747 97-580 limits assumed): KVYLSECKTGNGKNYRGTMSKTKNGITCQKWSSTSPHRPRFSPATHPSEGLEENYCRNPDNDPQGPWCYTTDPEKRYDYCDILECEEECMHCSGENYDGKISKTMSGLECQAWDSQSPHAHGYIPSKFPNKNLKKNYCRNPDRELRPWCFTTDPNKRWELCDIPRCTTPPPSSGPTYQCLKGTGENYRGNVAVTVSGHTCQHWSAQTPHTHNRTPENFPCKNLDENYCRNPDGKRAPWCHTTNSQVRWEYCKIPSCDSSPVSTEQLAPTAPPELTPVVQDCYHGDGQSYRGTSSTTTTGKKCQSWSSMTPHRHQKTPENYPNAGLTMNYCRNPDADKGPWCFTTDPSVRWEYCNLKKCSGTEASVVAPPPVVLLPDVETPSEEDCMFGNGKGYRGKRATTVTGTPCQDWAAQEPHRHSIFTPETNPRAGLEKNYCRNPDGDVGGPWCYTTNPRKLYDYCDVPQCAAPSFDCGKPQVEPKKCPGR
Sequence of Plasminogen (P00747 581-810 limits assumed): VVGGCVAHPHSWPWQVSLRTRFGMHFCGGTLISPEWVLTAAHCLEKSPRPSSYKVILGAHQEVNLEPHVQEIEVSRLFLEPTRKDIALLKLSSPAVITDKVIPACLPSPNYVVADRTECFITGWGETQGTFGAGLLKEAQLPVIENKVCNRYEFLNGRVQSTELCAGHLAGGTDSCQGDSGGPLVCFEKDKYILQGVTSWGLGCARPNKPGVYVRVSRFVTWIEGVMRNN

SMILES | Ki (Papain) [µM] | Ki (Plasminogen) [µM] | Ki (Cathepsin B) [µM]
O=C(CC[C@H]1CCC[C@@H](NC(=O)[C@H](Cc2c[nH]c3ccccc23)NC(=O)OCc2ccccc2)C1=O)N[C@@H](Cc1ccccc1)C(=O)O (stereo in doubt; 16A) | 250 | 100 | 
O=C(CC[C@H]1CCC[C@@H](NC(=O)[C@H](Cc2ccccc2)NC(=O)OCc2ccccc2)C1=O)N[C@@H](Cc1c[nH]c2ccccc12)C(=O)O | 490 | 420 | 
O=C(CC[C@H]1CCC[C@@H](NC(=O)[C@H](Cc2c[nH]c3ccccc23)NC(=O)OCc2ccccc2)C1=O)N[C@@H](Cc1c[nH]c2ccccc12)C(=O)O (stereo in doubt; 15A) | 380 | 5 | 
O=C(CC[C@H]1CCC[C@@H](NC(=O)[C@H](Cc2c[nH]c3ccccc23)NC(=O)OCc2ccccc2)C1=O)N[C@@H](Cc1c[nH]c2ccccc12)C(=O)O (stereo in doubt) |  | 10 | 
O=C(CC[C@H]1CCC[C@@H](NC(=O)[C@H](Cc2c[nH]c3ccccc23)NC(=O)OCc2ccccc2)C1=O)N[C@@H](Cc1ccccc1)C(=O)O (stereo in doubt; 16B) |  | 150 | 
O=C(CC[C@H]1CCC[C@@H](NC(=O)[C@H](Cc2ccccc2)NC(=O)OCc2ccccc2)C1=O)N[C@@H](Cc1ccccc1)C(=O)O | 870 | 3000 | 1100

From ChEMBL document CHEMBL1132407, “Combinatorial library of serine and cysteine protease inhibitors that interact with both the S and S' binding sites” (J Med Chem, 1999)
